US20240173255A1, “Polymeric Micelle Coated with Chain-Like Poorly Soluble Drug, Preparation Method and Application” (Hangzhou Hanjing Biotechnology Co., Ltd, priority 2021, published 2024)
≈ marks a conversion by molar mass, not a printed value. Read-outs that look alike come from different tables or passages of the source. Values belong to the molecule of their own block, whether it stands above or below them.

How the values were obtained:
Format in all cases: physicochemical
[1] = Solubility of series A to E drugs in water and 10% Soluplus solution; settings: for Solubility in 10% Soluplus: 10% Soluplus solution
Description: The solubilities of the poorly soluble chain-like drugs of the series A to E according to the present disclosure in water and a 10% Soluplus solution are shown in Table 2.

[2] = Solubilities of ethaselen and compounds of Examples 1 to 5 in water, DMSO and Soluplus solutions
Description: (§1) The hydrophobic constants and solubilities of the selenium-containing glutaminase inhibitors from series A to E prepared according to Examples 1 to 5 of the present disclosure as well as the commercially available ethaselen in water, dimethylsulfoxide (DMSO), and Soluplus solutions are shown in Table 4.

[3] = Hydrophobic constant
Description: as §1

Compound: COc1ccc2[se]n(CCCn3[se]c4ccc(OCCCN(C)C)cc4c3=O)c(=O)c2c1 [CPD21]
Solubility in 10% Soluplus [1]: >1000 µg/mL
Solubility in water [1]: <10 µg/mL

Compound: COc1ccc2[se]n(CCCCn3[se]c4ccc(OCCCN(C)C)cc4c3=O)c(=O)c2c1 [CPD22]
Solubility in 10% Soluplus [1]: >1000 µg/mL
Solubility in water [1]: <10 µg/mL

Compound: COc1ccc2[se]n(CCCCCn3[se]c4ccc(OCCCN(C)C)cc4c3=O)c(=O)c2c1 [CPD23]
Solubility in 10% Soluplus [1]: >1000 µg/mL
Solubility in water [1]: <10 µg/mL

Compound: COc1ccc2[se]n(CCCCCCn3[se]c4ccc(OCCCN(C)C)cc4c3=O)c(=O)c2c1 [CPD24]
Solubility in 10% Soluplus [1]: >1000 µg/mL
Solubility in water [1]: <10 µg/mL

Compound: COc1ccc2[se]n(CCCCCCCn3[se]c4ccc(OCCCN(C)C)cc4c3=O)c(=O)c2c1 [CPD25]
Solubility in 10% Soluplus [1]: >1000 µg/mL
Solubility in water [1]: <10 µg/mL

Compound: COc1ccc2[se]n(CCCn3[se]c4ccc(OCCCn5nnnc5C)cc4c3=O)c(=O)c2c1 [CPD26]
Solubility in 10% Soluplus [1]: >1000 µg/mL
Solubility in water [1]: <10 µg/mL

Compound: COc1ccc2[se]n(CCCCn3[se]c4ccc(OCCCn5nnnc5C)cc4c3=O)c(=O)c2c1 [CPD27]
Solubility in 10% Soluplus [1]: >1000 µg/mL
Solubility in water [1]: <10 µg/mL

Compound: COc1ccc2[se]n(CCCCCn3[se]c4ccc(OCCCn5nnnc5C)cc4c3=O)c(=O)c2c1 [CPD28]
Solubility in 10% Soluplus [1]: >1000 µg/mL
Solubility in water [1]: <10 µg/mL

Compound: COc1ccc2[se]n(CCCCCCn3[se]c4ccc(OCCCn5nnnc5C)cc4c3=O)c(=O)c2c1 [CPD29]
Solubility in 10% Soluplus [1]: >1000 µg/mL
Solubility in water [1]: <10 µg/mL

Compound: COc1ccc2[se]n(CCCCCCCn3[se]c4ccc(OCCCn5nnnc5C)cc4c3=O)c(=O)c2c1 [CPD30]
Solubility in 10% Soluplus [1]: >1000 µg/mL
Solubility in water [1]: <10 µg/mL

Compound: COc1ccc2[se]n(Cc3cccc(Cn4[se]c5ccc(O)cc5c4=O)c3)c(=O)c2c1 [CPD31]
Solubility in 10% Soluplus [1]: >1000 µg/mL
Solubility in water [1]: <10 µg/mL

Compound: COc1ccc2[se]n(Cc3cccc(Cn4[se]c5ccc(OCCCN=[N+]=[N-])cc5c4=O)c3)c(=O)c2c1 [CPD32]
Solubility in 10% Soluplus [1]: >1000 µg/mL
Solubility in water [1]: <10 µg/mL

Compound: COc1ccc2[se]n(Cc3cccc(Cn4[se]c5ccc(OCCCN(C)C)cc5c4=O)c3)c(=O)c2c1 [CPD33]
Solubility in 10% Soluplus [1]: >1000 µg/mL
Solubility in water [1]: <10 µg/mL

Compound: COc1ccc2[se]n(Cc3cccc(Cn4[se]c5ccc(OCCCn6nnnc6C)cc5c4=O)c3)c(=O)c2c1 [CPD34]
Solubility in 10% Soluplus [1]: >1000 µg/mL
Solubility in water [1]: <10 µg/mL

Compound: O=C(CCCCCn1[se]c2ccccc2c1=O)Oc1ccccc1 [CPD36]
Solubility in 10% Soluplus [1]: >1000 µg/mL
Solubility in water [1]: <10 µg/mL

Compound: O=C(CCCCCn1[se]c2ccccc2c1=O)Nc1ccccc1 [CPD37]
Solubility in 10% Soluplus [1]: >1000 µg/mL
Solubility in water [1]: <10 µg/mL

Compound: O=C(NCCCCCn1[se]c2ccccc2c1=O)c1ccccc1 [CPD38]
Solubility in 10% Soluplus [1]: >1000 µg/mL
Solubility in water [1]: <10 µg/mL

Solubility ([2]; DMSO, organic solvent or mixture, read-out: Solubility in DMSO): 22000 µg/mL (≈ 52100 µM)
Solubility ([2]; water, read-out: Solubility in Water): 2 to 3 µg/mL (≈ 4.74 to 7.11 µM)
Hydrophobic constant [3]: 1.87
Compound: O=c1c2ccccc2[se]n1CCn1[se]c2ccccc2c1=O [Ethaselen, ethaselen]
